Entries after “also recorded” stand apart in the source; their conditions may differ.
Tests used:
[1] = test system: memory (Visual Verbal Learning Task); format: in vivo, human (healthy volunteers); details: oral QD 12 days; dose and day in value
Procedure: (§1) A clinical study was developed to evaluate safety, tolerability, pharmacokinetics, and pharmacodynamics of Compound 1 at plasma steady-state in 40 healthy human volunteers. […].
(§2) Pharmacodynamic analyses included the NEUROCART® assessments, cognitive assessments Visual Verbal Learning Task (VVLT), and quantitative electroencephalography (qEEG). All PD analyses were based on the PD Analysis Set. For all PD endpoints, the baseline was calculated as average of the Day −1 measurements.
(§3) NEUROCART®, VVLT, and qEEG assessments were listed and summarized (absolute and change from baseline) using descriptive statistics at baseline and at each post-baseline time point. To establish whether significant treatment effects could be detected on the repeatedly measured NEUROCART® parameters, each parameter was analyzed with a mixed model analysis of covariance (ANCOVA) with treatment, time, and treatment by time as fixed factors, participant as a random factor, and the (average) baseline measurement as a covariate.

[2] = test system: CNS function (NEUROCART); format: in vivo, human (healthy volunteers)
Procedure: as §1, §2, §3

[3] = Stability of solutions/suspensions at room temperature; format: physicochemical
Description: The dosage forms provided herein may be prepared and placed in a container for storage at ambient or elevated temperature. […] This is beneficial because transportation of commercially viable dosage forms may benefit from stability at temperatures greater than those requiring refrigeration or sub-freezing environments during transportation and storage at the site of use.

[4] = target: human GABAA receptor α1/β3/γ2 (Homo sapiens, UniProt P14867+P18507); assay: SyncroPatch platform, PAM mode, GABAA α1/β3/γ2
human GABAA receptor α1/β3/γ2, sequence (P14867 28-456): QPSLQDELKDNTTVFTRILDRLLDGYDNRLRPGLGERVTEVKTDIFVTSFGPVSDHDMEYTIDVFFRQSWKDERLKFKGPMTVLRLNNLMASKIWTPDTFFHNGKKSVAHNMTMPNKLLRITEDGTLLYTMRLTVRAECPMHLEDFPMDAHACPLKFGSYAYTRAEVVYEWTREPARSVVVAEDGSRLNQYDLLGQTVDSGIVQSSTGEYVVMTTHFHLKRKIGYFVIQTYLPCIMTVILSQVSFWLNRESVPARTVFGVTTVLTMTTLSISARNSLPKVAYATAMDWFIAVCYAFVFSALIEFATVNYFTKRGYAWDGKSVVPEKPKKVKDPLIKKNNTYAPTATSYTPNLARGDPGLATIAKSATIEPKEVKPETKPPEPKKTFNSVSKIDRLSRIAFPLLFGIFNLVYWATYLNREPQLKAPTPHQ
human GABAA receptor α1/β3/γ2, sequence (P18507 40-475): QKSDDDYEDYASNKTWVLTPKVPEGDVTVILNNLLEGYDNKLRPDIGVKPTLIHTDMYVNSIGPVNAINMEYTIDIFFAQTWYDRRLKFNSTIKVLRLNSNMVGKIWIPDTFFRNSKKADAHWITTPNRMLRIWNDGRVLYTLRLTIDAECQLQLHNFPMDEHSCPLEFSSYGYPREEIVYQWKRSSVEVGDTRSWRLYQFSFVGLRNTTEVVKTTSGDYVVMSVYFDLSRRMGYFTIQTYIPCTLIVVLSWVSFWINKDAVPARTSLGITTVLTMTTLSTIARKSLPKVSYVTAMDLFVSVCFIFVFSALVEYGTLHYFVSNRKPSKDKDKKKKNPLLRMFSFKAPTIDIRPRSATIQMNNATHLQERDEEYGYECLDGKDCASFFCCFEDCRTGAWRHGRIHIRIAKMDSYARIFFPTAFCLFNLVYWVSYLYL
human GABAA receptor α1/β3/γ2, sequence (P28472 26-473 partner): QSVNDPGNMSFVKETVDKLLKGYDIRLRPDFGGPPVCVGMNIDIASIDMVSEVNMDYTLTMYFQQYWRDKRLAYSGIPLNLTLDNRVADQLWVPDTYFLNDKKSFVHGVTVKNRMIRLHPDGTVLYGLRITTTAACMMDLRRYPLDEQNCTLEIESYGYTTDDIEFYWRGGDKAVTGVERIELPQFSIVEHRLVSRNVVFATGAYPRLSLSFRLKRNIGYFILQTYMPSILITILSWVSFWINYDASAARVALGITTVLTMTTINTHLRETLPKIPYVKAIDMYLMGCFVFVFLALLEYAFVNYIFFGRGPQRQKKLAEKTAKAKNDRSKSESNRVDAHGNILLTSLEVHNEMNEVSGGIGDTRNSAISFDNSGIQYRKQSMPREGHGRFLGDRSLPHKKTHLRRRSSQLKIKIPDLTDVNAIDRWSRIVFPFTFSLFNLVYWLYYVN

[5] = test system: EEG spectral bands; assay: Pharmaco-EEG spectral analysis in wirelessly implanted rats
[6] = target: human GABAA receptor α3/β3/γ2 (Homo sapiens, UniProt P18507+P34903); assay: SyncroPatch platform, PAM mode, GABAA α3/β3/γ2
human GABAA receptor α3/β3/γ2, sequence (P34903 29-492): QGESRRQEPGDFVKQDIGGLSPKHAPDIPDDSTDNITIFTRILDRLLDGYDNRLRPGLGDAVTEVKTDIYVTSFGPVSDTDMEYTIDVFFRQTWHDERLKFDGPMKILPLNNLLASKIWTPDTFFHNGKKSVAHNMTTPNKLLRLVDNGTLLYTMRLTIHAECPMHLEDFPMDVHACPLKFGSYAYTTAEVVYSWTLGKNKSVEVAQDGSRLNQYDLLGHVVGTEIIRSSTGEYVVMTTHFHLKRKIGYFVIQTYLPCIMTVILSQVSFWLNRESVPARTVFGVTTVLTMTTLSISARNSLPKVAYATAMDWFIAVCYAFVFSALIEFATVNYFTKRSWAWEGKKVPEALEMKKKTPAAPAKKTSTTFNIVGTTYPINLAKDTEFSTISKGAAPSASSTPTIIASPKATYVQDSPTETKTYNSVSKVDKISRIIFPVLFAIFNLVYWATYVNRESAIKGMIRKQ
human GABAA receptor α3/β3/γ2, sequence (P18507 40-475): as the sequence (P18507 40-475) above
human GABAA receptor α3/β3/γ2, sequence (P28472 26-473 partner): as the sequence (P28472 26-473 partner) above

[7] = participants receiving Compound 1
[8] = oral QD 12 days, dose and day in value
[9] = Frontal-Parietal cortex, Quiet Wake

CC(C)(O)c1cnn2c(-c3ccc(F)c(-c4c(F)cccc4C#N)c3)cnc2n1 [Compound 1, 2′,6-difluoro-5′-(3-(2-hydroxypropan-2-yl)imidazo[1,2-b][1,2,4]triazin-7-yl)-[1,1′-biphenyl]-2-carbonitrile]
moderate somnolence (2.0 mg and 5.0 mg): Two TEAEs of moderate somnolence
moderate balance disorder (5.0 mg): 1 TEAE of moderate balance disorder
concomitant medications or physical examination findings (0.5-5.0 mg oral QD 12 days): No consistent differences
mean QTcF increase (0.5-5.0 mg oral QD 12 days): No clinically relevant increase
severe TEAEs or SAEs (0.5-5.0 mg oral QD 12 days): No severe TEAEs or serious adverse events (SAEs) occurred
suicidal ideation or behaviors (C-SSRS) (0.5-5.0 mg oral QD 12 days): No positive responses
participants with TEAEs of moderate severity (5/40 participants): 12.5%
participants with TEAEs of mild severity (34/40 participants): 85.0%
number of TEAEs of moderate severity (in 5/40 participants): 6
dizziness [7]: 20.0%
postural dizziness [7]: 30.0%
incidence of somnolence versus placebo (pooled placebo): approximately twice as high as the placebo-treated participants
delayed word recognition [1]: Significantly decreased delayed word recognition but not immediate recall or delayed recall at 2.0 mg on Day 12, but not on Day 1
immediate recall and delayed recall/recognition [1]: Significantly decreased immediate recall and decreased delayed recall/recognition at 5.0 mg on Day 1, but not on Day 12
reaction time for delayed word recognition [1]: Significantly increased reaction time for delayed word recognition at 1.5 mg on Day 1, but not on Day 12; also recorded: inconsistent effects on reaction time for delayed word recognition up to 1.5 mg
consistency of effects on SPV, body sway, VAS perception and feeling high ([2]; 1.5 mg Cohort): less consistent effects
VAS mood or VAS calmness ([2]; oral QD 12 days, any dose, Day 1 or Day 12): Did not affect VAS mood or VAS calmness at any dose on either Day 1 or Day 12
VAS external perception and VAS internal perception (Bowdle) [2, 8]: remained unaffected at 1.0 mg, 2.0 mg, and 5.0 mg but significantly increased at 1.5 mg on Day 1 and Day 12
VAS feeling high (Bowdle) [2, 8]: significantly increased at 0.5 mg on Day 1 and Day 12, and at 1.5 mg on Day 12 with no apparent dose-related effect
body sway [2, 8]: significantly increased body sway at 5.0 mg on Day 1; also recorded: Significantly increased body sway at the highest dose level of 5.0 mg on Day 1 but not on Day 12; also recorded: significantly increased body sway at 5.0 mg acutely
left pupil/iris ratio [2, 8]: Significantly reduced left pupil/iris ratio at 1.0 mg, 1.5 mg, and 5.0 mg on Day 1 but not on Day 12
saccadic reaction time [2, 8]: Significantly increased saccadic reaction time only at the highest dose level of 5.0 mg on Day 1, but not on Day 12
smooth pursuit eye movements [2, 8]: Significantly decreased smooth pursuit eye movements at 0.5 mg, 1.5 mg, and 5.0 mg on Day 1 but not on Day 12
stability of standard solutions ([3]; 20 μg/mL): 6 days
stability of samples in 0.5% TYLOSE MH 300 ([3]; 0.12 to 7.2 mg/mL): 8 days
Cl- flux / activity at α1 subtype [4]: blocking α1; also recorded: did not drive Cl-flux; also recorded: does not potentiate the α1 GABAA receptor subtype
EEG spectral power change ([5]; Frontal-Frontal cortex, Active and Quiet Wake): increased beta, low and high gamma
EEG spectral power change ([5]; Frontal-Frontal cortex, NREM): decreased theta and alpha; also recorded: decreased delta and increased low and high gamma
duration of EEG effects ([5]; Frontal-Frontal cortex, NREM, Compound 1 high dose PO, Lorazepam 1 mg/kg IP): 48 h
EEG spectral power change ([5]; Frontal-Frontal cortex, REM): increased beta
EEG spectral power change ([5]; Frontal-Parietal cortex, Active Wake): decreased alpha but increased beta, low and high gamma
EEG spectral power change ([5]; Frontal-Parietal cortex, NREM): decreased delta, theta, and alpha; also recorded: increase in low and high gamma
duration of delta and theta effects ([5]; Frontal-Parietal cortex, NREM): 48 h
duration of increase in low and high gamma ([5]; Frontal-Parietal cortex, NREM): 48 h
EEG spectral power change [5, 9]: decreased delta but increased beta, low and high gamma
duration of EEG effects [5, 9]: 48 h
EEG spectral power change ([5]; Frontal-Parietal cortex, REM): decreased theta and alpha but increased beta and low gamma
decrease in delta/theta power ([5]; Non-REM sleep): 40%
delta and theta power ([5]; Non-REM sleep, all doses, ANOVA w Dunnett's): significant decreases in delta and theta power across all doses
EEG profile ([5]; oral dosing, rats): EEG changes indicative of an anxiolytic profile
sedation / anxiolytic profile ([5]; sleep-wake pattern and EEG profile analysis): non-sedative anxiolytic profile
EEG spectral power change ([5]; summary, Active Wake): increased low gamma and decreased alpha (Parietal ctx)
EEG spectral power change ([5]; summary, Non-REM): suppressed power in low frequencies (Delta, Theta, and Alpha) and increased higher frequencies (gamma)
EEG spectral power change ([5]; summary, Quiet Wake): increased beta and low gamma
EEG spectral power change ([5]; summary, REM): increased beta
EC50 [6]: 2.47 nM
Emax [6]: 113%

Reference: patent US20260345621A1, “GABAA RECEPTOR MODULATORS AND USES THEREOF” (Engrail Therapeutics, Inc., priority 2022, published 2026)
